Ends that are not written are not given here.
Key:
[1] = tested on: transcription factor AP-1; test: Electrophoretic mobility shift assay (EMSA) for AP-1 activation in primary rat neurons / cortical cultures; assay type: cell-based
Experimental: Nuclear extracts for electrophoretic mobility shift assays (EMSAs) were prepared as described previously (Adams et al., J. Leukocyte Biol., 62: 865-873 (1997)) using 1.0-2.0×10^7 cells per sample. All buffers were freshly supplemented with dithiothreitol (DTT, 0.5 mM), protease inhibitors: PMSF (0.5 mM), chymostatin, peptstatin-A, aprotinin, antipain, leupeptin (each at 1 μg/ml), and phosphatase inhibitors: NaF (10 mM), ZnCl2 (1 mM), sodium orthovanadate (1 mM), and sodium pyrophosphate (5 mM). Aliquots of the final dialyzates were stored at −80° C. and discarded after use.
AP-1 transcription factor activation was assayed using an electrophoretic mobility shift assay (EMSA), as described by Adams et al., J. Leukoc. Biol., 62:865-873 (1997)). Cultures of primary rat neurons (Cornell-Bell et al., Cell Calcium, 12: 185-204 (1991)) were stimulated for 3 hours with various concentrations (0, 1, 10, 100 ng/ml) of peptide CMX-9236. Nuclear extracts prepared as described above were separated by gel electophoresis on non-denaturing gels and subjected to the EMSA procedure. This EMSA used an AP-1 synthetic duplex probe (Angel, P., 1987, Cell 49:729-739) having the sequence 5′-[…] (SEQ ID NO:33) and its antisense copy (complement strand), which were end-labeled with P^32 using polynucleotide kinase and (γ-P^32)-ATP. For the EMSA reaction, the labeled probe (0.5 pmol) was mixed with 3 μg of nuclear extract protein in a solution containing 10 mM Tris-HCl, pH 7.5, 50 mM NaCl, 1 mM EDTA, 1 mM dithiothreitol, 5% glycerol, 0.02% β-mercaptoethanol, and 1 μg of poly-dI/dC (Pharmacia). Reaction mixtures were incubated at 25° C. for 20 minutes to allow complete complex formation by the duplex with its appropriate AP-1 protein. The mixture was then electrophoresed under non-denaturing conditions through 4% polyacrylamide gels in 0.5×TBE buffer (45 mM Trisma base, 45 mM boric acid, 1 mM EDTA). The gels were dried on 3 mm paper. Bands were visualized by autoradiography at −80° C. with one intensifying screen and quantified by laser densitometry. The upregulation of AP-1 and the activation and upregulation process of AP-1 was compared to control cultures.
Primary cortical cell cultures were grown to confluence and used in in vitro cultures for determining the effects of various representative peptide compounds on upregulation of AP-1. […] Extracts were prepared from the nuclei isolated from the primary culture homogenates, purified, and analyzed for the presence of specific transcription factors using the electrophoretic mobility shift assay (EMSA) method. The binding of ^32P-labeled duplex DNA probes specific for activator protein-1 (AP-1) or nuclear factor κB (NF-κB) was analyzed and quantified by autoradiography. After a 3-hour incubation of the cultures with 1 ng/ml of the peptide CMX-9236 there was a 15-fold increase of AP-1 relative to […] control cultures. […] Thus, a small peptide compound that is less than 20 amino acids long can simulate the properties of large growth factors such as NGF and BDNF, which exist as dimers of protein chains with molecular weights of 13,259 and 13,500, respectively.

[2] = tested on: middle cerebral artery (MCA) permanent occlusion stroke model; test: Permanent MCA 24-hour occlusion stroke model; assay type: in vivo, Sprague-Dawley rats; conditions: Dose 0.05 mg/hr
[3] = tested on: superoxide dismutase (SOD) protein; test: Western immunoblot of SOD protein in rat brain primary cortical cultures; assay type: cell-based; conditions: for SOD: 5 hours at 37° C.
Experimental: Primary cortical cultures were obtained by growing newborn rat brain cortical cells in Delbecco's modified Eagle medium supplemented with 25 μg/ml of gentamycin and 10% fetal calf serum. The cells were isolated from the E-21 cortex of rat brain, plated at a density of 1×10^5 per ml and grown to confluence within four to five days in an atmosphere containing air and 5% CO2 at 37° C. as described in Cornell-Bell et al., Science, 247: 470-473 (1990) and Cell Calcium, 12: 185-204 (1991). Cultures were grown in 20 ml flasks as a monolayer and then exposed to various concentrations of peptides for studies of the effects of peptides on upregulation of genes for SOD and CAT and on the transmigration of transcription factor AP-1 to cell nuclei. […]
(§1) Tissue culture experiments were carried out using primary cultures of rat brain cortical cells as previously described above in Example 2. Primary cultures from embryonic rat brain isolated at E-21 (21 day embryos) and incubated for five hours with various doses: 1, 10, 100 ng/ml of CMX-99672. Cytoplasmic proteins were isolated and analyzed for upregulation of SOD and CAT by Western immunoblots as described above. […] The Western blot was scanned to quantify the fold-increase in SOD production in cell cultures treated with the CMX-99672 peptide compound.
Representative peptide compounds were tested at various doses and compared for their ability to upregulate expression of genes for SOD and/or CAT in rat primary cortical cultures basically as described above. Cultures were incubated with a peptide compound for 5 hours at 37° C. Cytoplasmic protein fractions were prepared as described above. Cytoplasmic proteins were separated by gel electrophoresis and analyzed by Western immunoblots using antisera to SOD and CAT, respectively (Rockland, Inc., Gilbertsville, Pa.). […]

[4] = tested on: middle cerebral artery (MCA) permanent occlusion stroke model; test: Permanent MCA 24-hour occlusion stroke model; assay type: in vivo, Sprague-Dawley rats; conditions: rat, in vivo
Experimental: The in vivo neuroprotective effects of CMX-9236 were investigated in both temporary and permanent occlusion stroke models in Sprague-Dawley rats using an intraluminal suture of the middle cerebral artery (MCA) occlusion method (Zea Longa et al., Stroke, 20: 84 (1989)). Briefly, a 4-0 silicone-coated suture was inserted through the right common carotid artery to block the MCA orifice. In the temporary model, CMX-9236 (6.2 mg/kg/hr) or vehicle was administered via the femoral vein at 30 minutes after the start of a 2-hour occlusion for a 4-hour continuous infusion; the rats were then reperfused by withdrawing the suture at […] after the MCA occlusion. All experiments were performed in a blinded and randomized manner, and rectal temperature was maintained at 37° C. The animals were sacrificed, and their brains were removed, sectioned into six 2-mm-thick coronal slices and stained with 2,3,5-triphenyltetrazolium chloride solution (Bederson et al., Stroke, 17:1304 (1986)) to visualize the extent of brain damage for the calculation of the corrected hemispheric infarct volumes (Nagasawa and Kogure, Stroke, 20:1037 (1989); Li et al., J. Cereb. Blood Flow Metab., 17:1132 (1997)). […] This represents a significant reduction of infarct size (35±5%, p=0.01, student t-test) for the CMX-9236-treated group in the temporary occlusion model. There was also a 58+11% improvement in the neurological scoring (Minematsu et al., Neurology, 42:235 (1992)) for the peptide-treated group versus controls at the end of 24 hours.
In the permanent occlusion stroke model, the blood flow to the MCA territory was blocked for the total 24-hour period. A continuous i.v. infusion (0.5 ml/hr) of the CMX-9236 peptide (2.04 mg/kg/hr) or vehicle was initiated at 30 minutes after occlusion for 6 hours, followed by a bolus i.v. infusion of CMX-9236 (4.0 mg/kg in 0.5 ml delivered over 10 minutes) or vehicle at 12 hours after occlusion. The corrected infarct volumes were 127.5±18 mm^3 versus 216±18 mm^3 for drug-treated animals and controls, respectively. This represents a significant decrease (41±5%, p=0.003, student t-test) in infarct size for the drug-treated group as compared to the vehicle-treated control group (n=10 per group) in the permanent model, indicating a substantial rescue of brain tissue. These findings indicate that CMX-9236 has neuroprotective properties post-trauma in vivo, reducing the brain damage generated by cerebral ischemia.

[5] = tested on: superoxide dismutase-1 (SOD-1) mRNA; test: RT-PCR upregulation of SOD-1 mRNA in rat primary cortical cell cultures; assay type: cell-based; conditions: 10 ng/ml, 3 hours
Experimental: The RT-PCR method (see, for example, Innis et al., PCR Protocols: A Guide to Methods and Applications, (Academic Press, San Diego, 1990)) was used to investigate the upregulation of the specific mRNA that codes for the enzyme superoxide dismutase (SOD).
Primary cortical cultures were obtained by growing newborn rat brain cortical cells in Delbecco's modified Eagle medium supplemented with 25 μg/ml of gentamycin and 10% fetal calf serum. The cells were isolated from the E-21 cortex of rat brain, plated at a density of 1×10^5 per ml and grown to confluence within four to five days in an atmosphere containing air and 5% CO2 at 37° C. as described in Cornell-Bell et al., Science, 247: 470-473 (1990) and Cell Calcium, 12: 185-204 (1991). Cultures were grown in 20 ml flasks as a monolayer and then exposed to various concentrations of peptides for studies of the effects of peptides on upregulation of genes for SOD and CAT and on the transmigration of transcription factor AP-1 to cell nuclei.
Primary cultures of rat brain cortical cells were incubated with 100 ng/ml of peptide compound CMX-9236 for durations of 0 to 48 hours. mRNA was isolated from the cytoplasmic fraction of lysed cells according to standard methods (Angel et al., Cell 49:729-739, 1987). The RNA was incubated according to the RT-PCR protocol with two strands, 20 nucleotides long, one for the sense and one from the antisense strand. The sequences were selected to be unique for superoxide dismutase-1 (SOD-1), and to span one intron segment. […] The sequence of the two probe segments of the oligo dT segments for SOD are as follows: anti-sense strand, […] (SEQ ID NO:29), and sense strand, […] (SEQ ID NO:30). These span a sequence of 208 base pairs (bp) on the primary SOD sequence. The mixture was then treated with reverse transcriptase to obtain the cDNA according to standard PCR methods. The cDNA was then analyzed by electrophoresis and separated according to sequence lengths on a non-denaturing 5% polyacrylamide gel. The electrophoretically separated molecules were treated with ethidium bromide to stain double-stranded DNA fragments. These were visualized by ultraviolet illumination and photographed. The gels were then analyzed by a laser scanning fluorescence detector to quantitate the amount of messenger RNA for the extent of upregulation of SOD message and its time course of synthesis as a function of stimulation by CMX-9236. Similar methods of analysis were used for other peptides.

catalase (CAT) protein = test: Western immunoblot of CAT protein in rat primary cortical cultures; assay type: cell-based; conditions: Dose 28 pmol/ml, 5 hours at 37° C.
Experimental: as §1
Representative peptide compounds were tested at various doses and compared for their ability to upregulate expression of genes for SOD and/or CAT in rat primary cortical cultures basically as described above. Cultures were incubated with a peptide compound for 5 hours at 37° C. Cytoplasmic protein fractions were prepared as described above. Cytoplasmic proteins were separated by gel electrophoresis and analyzed by Western immunoblots using antisera to SOD and CAT, respectively (Rockland, Inc., Gilbertsville, Pa.).

catalase (CAT) mRNA = test: RT-PCR upregulation of catalase (CAT) mRNA in primary rat cortical cultures; assay type: cell-based; conditions: 10 ng/ml, 3 hours
Description: Peptide compounds of the invention may also upregulate mRNA for catalase (CAT). Experiments using the RT-PCR methods to detect upregulation of CAT mRNA in primary rat cortical brain cultures treated with various representative peptide compounds, i.e., CMX-9236, CMX-9963, and CMX-9967. The catalase probe duplex consisted of a sense primer having the sequence […] (SEQ ID NO:31) and antisense primer having the sequence […] (SEQ ID NO:32) flanking a 95 bp region of the CAT DNA.
Primary rat brain cortical cell cultures were incubated with 100 ng/ml of the peptide compound CMX-9236 for 0, 0.5, 1, 2, 3, 6, 12, 24, and 48 hours. […] The upregulation of CAT mRNA was maximal at 3 hours after the addition of the peptide compound, and it decreased back to control levels at 48 hours. GAPDH was the internal standard in these experiments. […] A 13-fold increase in CAT mRNA levels was observed (over control) of CAT mRNA occurred when primary rat brain cortical cultures were incubated with 100 ng/ml of CMX-9236 for 3 hours.

maximum increase of CAT mRNA (catalase (CAT) mRNA) [fold]	Substance	activation / upregulation of AP-1 (in words) [1]	Percent Neurological Rescue [2] [%]	Percent Rescue (percent decrease in infarct size vs vehicle controls) [2] [%]	neuroprotective effect in permanent MCA assay (in words) [4]	maximum increase of SOD-1 mRNA [5]	CAT (catalase (CAT) protein) [% Control]	other results
	KKDGDGDFA [CMX-9902]	increased nuclear migration of AP-1	35 ± 12	29 ± 7				upregulation of SOD proteins (in words) ([3]; culture in vitro studies): upregulated SOD proteins
	KKQYKLGSKTGPGQ [CMX-9901]	upregulated AP-1			positive neuroprotective effect			
~7	[Ac]-Asp Gly Asp Gly Asp Phe Ala (Ac-DGDGDFA) [CMX-9963]					around 10 fold	700	SOD ([3]; Dose 6.7 pmol/ml): 1873 % Control
6	[Ac]-Asp Gly Asp [CMX-9967]		40 ± 10	20 ± 6		6 fold	200	SOD ([3]; Dose 28 pmol/ml): 1220 % Control; fold-increase in SOD-1 protein (intensity of antibody binding) ([3]; cells treated 5 hours with 10 and 100 ng/ml): ≥ 20 fold
	KKETLQFR [CMX-8933, described in U.S. Pat. No. 5,545,719]	upregulated AP-1			positive neuroprotective effect			
